Results on 29 molecules are retold here after patent US20050282818A1, “Ubiquitin ligase inhibitors” (Rigel Pharmaceuticals, Inc., priority 2004, published 2005).

One experiment concerns the target APC11/APC2 (Homo sapiens, UniProt Q9NYG5+Q9UJX6). Nature of the experiment: APC-11/APC-2 ligase assay (APC auto ubiquitination). The class given is biochemical. The conditions noted are these: APC assay. The essentials: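 His-tagged APC was captured on nickel plates with human E1 (5 ng/well), UbcH5c (20 ng/well), APC (100 ng/well) and Flag-ubiquitin (100 ng/well) in a Tris pH 7.6 reaction buffer containing 2.5 mM ATP, for 1 hour at room temperature. Read-out was anti-Flag/HRP chemiluminescence. IC50 was set against a DMSO control, typically from 6 or 8 concentrations.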

For experiment [1], the system named is ICAM-1 expression in A549 cells. Nature of the experiment: ICAM assay (IL-1 induced ICAM-1/CD54 expression in A549 cells). The conditions noted are these: Homo sapiens, A549, ICAM assay. The class given is cell-based, human. The method, boiled down: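 A549 cells, 10,000/well, preincubated with compound 1 h at 37° C, then stimulated with IL-1 (4 μl of 25 ng/ml added) for 4 h. Surface ICAM-1 detected by anti-CD54 plus anti-mouse IgG staining for 1 h, luminescent read-out after PBS washes.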

Another experiment has as its target T1, TRAF6/Uev1A/Ubc13 (Homo sapiens, UniProt Q9Y4K3).
T1 sequence (Q9Y4K3 1-522): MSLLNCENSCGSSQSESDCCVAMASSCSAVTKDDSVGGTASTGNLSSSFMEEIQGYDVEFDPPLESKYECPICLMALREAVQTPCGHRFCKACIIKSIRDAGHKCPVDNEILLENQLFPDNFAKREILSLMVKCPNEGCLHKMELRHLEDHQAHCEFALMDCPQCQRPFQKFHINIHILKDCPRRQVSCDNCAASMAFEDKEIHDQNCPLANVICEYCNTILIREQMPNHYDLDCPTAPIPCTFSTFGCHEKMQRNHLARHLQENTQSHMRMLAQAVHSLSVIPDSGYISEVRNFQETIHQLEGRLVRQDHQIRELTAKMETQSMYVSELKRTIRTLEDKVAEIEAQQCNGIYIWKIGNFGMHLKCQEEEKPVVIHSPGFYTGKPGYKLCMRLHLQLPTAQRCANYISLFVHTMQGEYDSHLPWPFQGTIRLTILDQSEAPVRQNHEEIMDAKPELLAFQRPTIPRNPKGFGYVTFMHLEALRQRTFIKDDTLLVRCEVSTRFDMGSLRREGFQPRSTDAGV
Nature of the experiment: TRAF6/Uev1A/Ubc13 plate-based ubiquitin ligase assay. The class given is biochemical. The essentials:
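Ligase activity was read as luminescence from anti-Flag/HRP detection of Flag-ubiquitin bound to casein-blocked Ni-plates alongside His-ubiquitin after a 1 h room-temperature reaction. Buffer: 62.5 mM Tris pH 7.5, 6.25 mM MgCl2, 1.0 mM DTT, 2 μM ATP; E1, Uev1a/Ubc13 and TRAF6 added last to start. IC50s derived across compound concentrations.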

Sequence of APC11/APC2 (Q9NYG5 whole entry): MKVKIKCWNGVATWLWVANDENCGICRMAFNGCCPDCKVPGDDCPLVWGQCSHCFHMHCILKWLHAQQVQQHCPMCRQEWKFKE
Sequence of APC11/APC2 (Q9UJX6 whole entry): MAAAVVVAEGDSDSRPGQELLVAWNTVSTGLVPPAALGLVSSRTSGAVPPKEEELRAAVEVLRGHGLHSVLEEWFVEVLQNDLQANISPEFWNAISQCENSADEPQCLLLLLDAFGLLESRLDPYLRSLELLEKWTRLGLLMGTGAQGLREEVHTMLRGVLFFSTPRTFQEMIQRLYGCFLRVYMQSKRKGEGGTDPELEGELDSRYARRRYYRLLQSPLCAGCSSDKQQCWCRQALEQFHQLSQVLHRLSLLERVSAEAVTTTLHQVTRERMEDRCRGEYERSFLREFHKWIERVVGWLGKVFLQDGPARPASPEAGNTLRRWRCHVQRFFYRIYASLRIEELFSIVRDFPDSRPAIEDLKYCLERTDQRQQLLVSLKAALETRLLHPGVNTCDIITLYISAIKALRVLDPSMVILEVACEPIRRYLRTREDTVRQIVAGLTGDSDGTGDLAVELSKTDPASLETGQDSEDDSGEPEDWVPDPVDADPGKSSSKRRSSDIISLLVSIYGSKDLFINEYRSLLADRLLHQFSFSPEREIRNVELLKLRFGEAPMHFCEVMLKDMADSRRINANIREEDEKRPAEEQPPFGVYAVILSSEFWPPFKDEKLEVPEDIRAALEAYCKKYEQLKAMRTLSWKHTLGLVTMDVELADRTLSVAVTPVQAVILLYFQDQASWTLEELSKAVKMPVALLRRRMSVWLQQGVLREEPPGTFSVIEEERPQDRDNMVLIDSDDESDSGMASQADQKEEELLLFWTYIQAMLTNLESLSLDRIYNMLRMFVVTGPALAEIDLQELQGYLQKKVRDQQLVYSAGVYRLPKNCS

Take `O=S(=O)(Nc1cccc2ccccc12)c1c(Cl)cc(Cl)c2nonc12` [compound 416, 5,7-dichloro-N-(naphthalen-1-yl)-2,1,3-benzoxadiazole-4-sulfonamide]: the concentration for half-maximal inhibition (IC50) (at APC11/APC2; in experiment [1]; against TRAF6/Uev1A/Ubc13) was 1 to 20 µM in each case.
For `O=S(=O)(Nc1cccc2ccccc12)c1c(Cl)cc(Nc2cccc3ccccc23)c2nonc12` [compound 417, 5-chloro-N-(naphthalen-1-yl)-7-(naphthalen-1-ylamino)-2,1,3-benzoxadiazole-4-sulfonamide], the IC50 (against APC11/APC2; in experiment [1]; against TRAF6/Uev1A/Ubc13) was 1 to 20 µM throughout.
With `FC(F)(F)c1cccc(-c2cc(-c3cccc(C(F)(F)F)c3)c3nonc3c2)c1` [compound 418, 4,6-bis(3-[trifluoromethyl]phenyl)-2,1,3-benzoxadiazole], the IC50 (at APC11/APC2; in experiment [1]; against TRAF6/Uev1A/Ubc13) was no less than 20 µM in each case.
As for `Cc1cccc(-c2cc(-c3cccc(C)c3)c3nonc3c2)c1` [compound 419, 4,6-bis(3-methylphenyl)-2,1,3-benzoxadiazole], the IC50 (at APC11/APC2; in experiment [1]; against TRAF6/Uev1A/Ubc13) was no less than 20 µM throughout.
For the molecule `FC(F)(F)c1ccc(-c2cc(-c3ccc(C(F)(F)F)cc3)c3nonc3c2)cc1` [compound 420, 4,6-bis(4-[trifluoromethyl]phenyl)-2,1,3-benzoxadiazole], the IC50 (against APC11/APC2; in experiment [1]; on TRAF6/Uev1A/Ubc13) was no less than 20 µM throughout.
For `COc1cccc(-c2cc(-c3cccc(OC)c3)c3nonc3c2)c1` [compound 421, 4,6-bis(3-methoxyphenyl)-2,1,3-benzoxadiazole], the IC50 (against APC11/APC2; in experiment [1]; against TRAF6/Uev1A/Ubc13) was no less than 20 µM in each case.
With `CC(C)(C)c1ccc(-c2cc(-c3ccc(C(C)(C)C)cc3)c3nonc3c2)cc1` [compound 422, 4,6-bis(4-t-butylphenyl)-2,1,3-benzoxadiazole], the IC50 (at APC11/APC2; in experiment [1]; against TRAF6/Uev1A/Ubc13) was no less than 20 µM each time.
For the molecule `COc1ccccc1-c1cc(-c2ccccc2OC)c2nonc2c1` [compound 423, 4,6-bis(2-methoxyphenyl)-2,1,3-benzoxadiazole], the IC50 (on APC11/APC2; in experiment [1]; on TRAF6/Uev1A/Ubc13) was no less than 20 µM each time.
Regarding `O=S(=O)(Nc1ccccc1Br)c1ccc(Cl)c2nonc12` [compound 424, N-(2-bromophenyl)-7-chloro-2,1,3-benzoxadiazole-4-sulfonamide], the IC50 (against APC11/APC2; in experiment [1]; against TRAF6/Uev1A/Ubc13) was no less than 20 µM throughout.
As to `Oc1ccc2c(c1)cc(Sc1cccc3cccnc13)c1nonc12` [compound 425, 4-(quinolin-8-ylthio)naphtho[2,1-c][1,2,5]oxadiazol-7-ol], the IC50 (against APC11/APC2; in experiment [1]; on TRAF6/Uev1A/Ubc13) was no less than 20 µM in each case.
For `Cc1cc(C)cc(-c2ccc(N)c3nonc23)c1` [compound 426, 7-(3,5-dimethylphenyl)-2,1,3-benzoxadiazol-4-amine], the IC50 (against APC11/APC2; in experiment [1]; against TRAF6/Uev1A/Ubc13) was no less than 20 µM in each case.
As for `O=C(Nc1ccc([N+](=O)[O-])c2nonc12)c1cccc(F)c1F` [compound 427, 2,3-difluoro-N-(7-nitro-2,1,3-benzoxadiazol-4-yl)benzamide], the results for the IC50 (at APC11/APC2; in experiment [1]; on TRAF6/Uev1A/Ubc13) were no less than 20 µM, 1 to 20 µM and no less than 20 µM, respectively.
For `O=[N+]([O-])c1c(N2CCCCC2)cc(-c2cc(F)cc(F)c2)c2nonc12` [compound 428, 7-(3,5-difluorophenyl)-4-nitro-5-(piperidin-1-yl)-2,1,3-benzoxadiazole], the IC50 (against APC11/APC2; in experiment [1]; against TRAF6/Uev1A/Ubc13) was no less than 20 µM throughout.
Consider `O=[N+]([O-])c1c(N2CCCCC2)cc(-c2cccc(C(F)(F)F)c2)c2nonc12` [compound 429, 7-(3-[trifluoromethyl]phenyl)-4-nitro-5-(piperidin-1-yl)-2,1,3-benzoxadiazole], for which the IC50 (at APC11/APC2; in experiment [1]; against TRAF6/Uev1A/Ubc13) was no less than 20 µM each time.
For the molecule `Oc1ccc2c(c1)cc(Cl)c1nonc12` [compound 430, 4-chloronaphtho[2,1-c][1,2,5]oxadiazol-7-ol], the IC50 (against APC11/APC2; in experiment [1]; at TRAF6/Uev1A/Ubc13) was no less than 20 µM in each case.
`O=[N+]([O-])c1c(N2CCCCC2)cc(-c2ccc(C(F)(F)F)cc2)c2nonc12` [compound 431, 7-(4-[trifluoromethyl]phenyl)-4-nitro-5-(piperidin-1-yl)-2,1,3-benzoxadiazole]: the IC50 (on APC11/APC2; in experiment [1]; against TRAF6/Uev1A/Ubc13) was no less than 20 µM in each case.
In the case of `Cc1cccc(-c2cc(N3CCCCC3)c([N+](=O)[O-])c3nonc23)c1` [compound 432, 7-(3-methylphenyl)-4-nitro-5-(piperidin-1-yl)-2,1,3-benzoxadiazole], the IC50 (at APC11/APC2; in experiment [1]; on TRAF6/Uev1A/Ubc13) was no less than 20 µM each time.
On to `CC(C)(C)c1ccc(-c2cc(N3CCCCC3)c([N+](=O)[O-])c3nonc23)cc1` [compound 433, 7-(4-t-butylphenyl)-4-nitro-5-(piperidin-1-yl)-2,1,3-benzoxadiazole], for which the IC50 (at APC11/APC2; in experiment [1]; on TRAF6/Uev1A/Ubc13) was no less than 20 µM throughout.
Take `COc1cccc(-c2cc(N3CCCCC3)c([N+](=O)[O-])c3nonc23)c1` [compound 434, 7-(3-methoxyphenyl)-4-nitro-5-(piperidin-1-yl)-2,1,3-benzoxadiazole]: the IC50 (against APC11/APC2; in experiment [1]; on TRAF6/Uev1A/Ubc13) was no less than 20 µM in each case.
Turning to `CC(C)(C)c1ccc(-c2ccc(N)c3nonc23)cc1` [compound 435, 7-(4-t-butylphenyl)-2,1,3-benzoxadiazol-4-amine], the IC50 (against APC11/APC2; in experiment [1]; against TRAF6/Uev1A/Ubc13) was no less than 20 µM each time.
Regarding `CC(=O)Nc1ccc(-c2cc(C)cc(C)c2)c2nonc12` [compound 436, N-(7-[3,5-dimethylphenyl]-2,1,3-benzoxadiazol-4-yl)acetamide], the half-inhibitory concentration (IC50) (at APC11/APC2; in experiment [1]; at TRAF6/Uev1A/Ubc13) was no less than 20 µM each time.
As to `O=[N+]([O-])c1ccc(-c2ccccc2F)c2nonc12` [compound 437, 7-(2-fluorophenyl)-4-nitro-2,1,3-benzoxadiazole], the figures for the IC50 (on APC11/APC2; in experiment [1]; against TRAF6/Uev1A/Ubc13) were 1 to 20 µM, 1 to 20 µM and no less than 20 µM, respectively.
In the case of `COCCNS(=O)(=O)c1ccc(Cl)c2nonc12` [compound 438, 7-chloro-N-(2-methoxyethyl)-2,1,3-benzoxadiazole-4-sulfonamide], the IC50 (against APC11/APC2; in experiment [1]; at TRAF6/Uev1A/Ubc13) was no less than 20 µM throughout.
With `Cc1ccccc1-c1ccc([N+](=O)[O-])c2nonc12` [compound 439, 4-nitro-7-o-tolyl-2,1,3-benzoxadiazole], the IC50 (commonly the midpoint of a concentration-inhibition curve) against APC11/APC2 is no less than 20 µM; in experiment [1] it was 1 to 20 µM; at TRAF6/Uev1A/Ubc13 it was no less than 20 µM.
Regarding `O=[N+]([O-])c1ccc(-c2ccccc2)c2nonc12` [compound 440, 4-nitro-7-phenyl-2,1,3-benzoxadiazole], the IC50 against APC11/APC2 was 1 to 20 µM; in experiment [1], no less than 20 µM; at TRAF6/Uev1A/Ubc13, no less than 20 µM.
Turning to `CC(=O)c1ccc(-c2ccc([N+](=O)[O-])c3nonc23)cc1` [compound 441, 1-(4-[7-nitro-2,1,3-benzoxadiazol-4-yl]phenyl)ethanone], the IC50 (at APC11/APC2; in experiment [1]; against TRAF6/Uev1A/Ubc13) was 1 to 20 µM each time.
For the molecule `O=[N+]([O-])c1ccc(-c2ccc(F)cc2)c2nonc12` [compound 442, 4-nitro-7-(4-fluorophenyl)-2,1,3-benzoxadiazole], the IC50 at APC11/APC2 was no less than 20 µM; in experiment [1] it was 1 to 20 µM; on TRAF6/Uev1A/Ubc13 it was 1 to 20 µM.
`CC(=O)c1cccc(-c2ccc([N+](=O)[O-])c3nonc23)c1` [compound 443, 1-(3-[7-nitro-2,1,3-benzoxadiazol-4-yl]phenyl)ethanone]: the IC50 (at APC11/APC2; in experiment [1]; at TRAF6/Uev1A/Ubc13) was 1 to 20 µM throughout.
On to `O=[N+]([O-])c1cccc(-c2ccc([N+](=O)[O-])c3nonc23)c1` [compound 444, 4-nitro-7-(3-nitrophenyl)-2,1,3-benzoxadiazole], for which the IC50 (on APC11/APC2; in experiment [1]; against TRAF6/Uev1A/Ubc13) was 1 to 20 µM each time.
